Molecular target: T1, human CPT1A (Homo sapiens, UniProt P50416)
T1 construct: made in house; host or cells: Saccharomyces cerevisiae (pESC-trp) or cultured mammalian cells (pCDNA3.1); mitochondrial extract
T1 sequence (P50416 1-773): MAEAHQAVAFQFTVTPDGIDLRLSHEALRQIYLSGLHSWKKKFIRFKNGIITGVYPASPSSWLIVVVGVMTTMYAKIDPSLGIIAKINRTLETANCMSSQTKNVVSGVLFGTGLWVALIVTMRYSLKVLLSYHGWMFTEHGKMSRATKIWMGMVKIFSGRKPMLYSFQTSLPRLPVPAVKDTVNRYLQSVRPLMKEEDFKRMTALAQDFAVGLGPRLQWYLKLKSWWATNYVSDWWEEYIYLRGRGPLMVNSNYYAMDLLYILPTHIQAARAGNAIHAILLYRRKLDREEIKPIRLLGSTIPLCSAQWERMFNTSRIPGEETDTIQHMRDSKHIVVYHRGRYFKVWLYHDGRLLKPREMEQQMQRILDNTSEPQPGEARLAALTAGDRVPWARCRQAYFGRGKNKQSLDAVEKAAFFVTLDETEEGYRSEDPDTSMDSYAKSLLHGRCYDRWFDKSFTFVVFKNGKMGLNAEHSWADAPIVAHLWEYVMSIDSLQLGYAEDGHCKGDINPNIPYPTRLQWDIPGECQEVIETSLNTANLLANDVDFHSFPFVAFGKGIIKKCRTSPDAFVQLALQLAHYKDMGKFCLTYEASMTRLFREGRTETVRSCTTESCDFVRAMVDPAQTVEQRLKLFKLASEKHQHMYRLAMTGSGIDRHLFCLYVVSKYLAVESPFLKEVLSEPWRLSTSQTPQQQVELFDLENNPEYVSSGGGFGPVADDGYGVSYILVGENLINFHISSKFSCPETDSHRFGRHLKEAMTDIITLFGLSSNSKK
Test: Human CPT1A LC/MS assay
Format: biochemical
Settings: human CPT1A LC/MS assay, dose response format
Excerpt: Nucleotide sequences encoding human CPT1 enzymes were individually cloned into the yeast expression vector pESC-trp at the Cla1 (5′ terminus) and Pac1 (3′ terminus) restriction sites by PCR amplification of the open reading frame using oligonucleotide primers designed to encode the wild-type CPT1 protein sequence. Standard molecular biology techniques were used to transform and express the CPT1 proteins in the yeast Saccharomyces cerevisiae. The yeast cells were lysed by enzymatic degradation of the cell wall by Zymolase, and the mitochondria were isolated by standard biochemical techniques. The integrity of the isolated mitochondria was monitored by determining the activity of succinate dehydrogenase in the mitochondrial preparations. The mitochondrial extracts were stored at −80° C. in buffer containing 10 mM HEPES pH 7.4 and 250 mM sucrose.
Human CPT1 (A, B, C) genes were additionally cloned into the pCDNA3.1 vector individually for expression in cultured mammalian cells. Cells expressing the exogenous CPT1A were identified and grown under standard conditions. Mammalian cells were harvested, and mitochondrial extracts prepared using standard biochemical methods. The mitochondrial extracts were stored at −80° C. in buffer containing 10 mM HEPES pH 7.4 and 250 mM sucrose.
Assays were performed in 96-well plate format. Each 100 μL reaction contained 40 mM KCl, 50 mM TrisHCl pH 7.5, and 250 mM mannitol (Assay Buffer), and 1.6 μg protein of an extract, 20 μM palmitoyl-CoA, 50 μM L-carnitine, and 10 ug/mL BSA. Reactions were incubated at room temperature and stopped after 10 minutes by extraction with 200 μL of water saturated n-butanol containing myristoyl carnitine (500 nM) as an internal standard. The samples were thoroughly mixed, and the phases separated by centrifugation. Samples were prepared for analysis with a 10 fold dilution of the n-butanol phase containing the reaction product palmitoyl carnitine into a 50:50 (acetonitrile:water) solvent for analysis. […] of prepared sample was separated on a Phenomenex Jupiter 5μ C4 reverse-phase column using an Agilent 1100 HPLC with a gradient from 50% acetonitrile (0.5% acetic acid) to 100% acetonitrile and quantified by detection with a Bruker Esquire 3000plus mass spectrometer. The abundance of the palmitoyl carnitine product was determined relative to the internal standard and the actual quantity of palmitoyl carnitine can be determined from a standard curve prepared using the n-butanol solution containing the internal standard.
Compounds were evaluated in two formats, a screening format, and a dose response format. The screening format was performed by adding 25 μL compound in 20% DMSO and Assay Buffer to 25 μL of extract containing […] and Assay Buffer, followed by a 10 minute incubation at room temperature. 50 μL of 40 μM palmitoyl-CoA in Assay Buffer was added to the reaction mixture, mixed and incubated for 10 minutes at room temperature. A negative control for activity was also performed where the carnitine was omitted from the reaction. A positive control for activity was also performed by omitting compound from the solution containing 20% DMSO and Assay Buffer. The reaction mixture was extracted and analyzed as described above. The inhibition by compound was determined by comparing the control relative activity to the relative activity observed in wells containing the compound. Relative activity was determined by subtracting the relative intensity (area palmitoyl carnitine/area myristoyl carnitine) observed in the negative control from the relative intensity observed in the experimental well, and dividing by the relative activity observed in the positive control.
[formula] Compound characterization by dose response format was performed using the above described assay conditions and a 16 point compound titration in 2 fold compound dilution steps. The DMSO concentration was kept constant at 20% (v/v) for all compound concentrations.

Row | Compound | IC50
1 | C[N+](C)(C)C[C@@H](CC(=O)O)NC(=O)c1ccc(CCc2ccsc2)s1 [Example S98, (R)-3-carboxy-N,N,N-trimethyl-2-(5-(2-(thiophen-3-yl)ethyl)thiophene-2-carboxamido)propan-1-aminium 2,2,2-trifluoroacetate] | ≤ 1 µM
2 | CCCCCCC#Cc1cccc(NS(=O)(=O)N[C@H](CC(=O)[O-])C[N+](C)(C)C)c1 [Example S110, (R)-3-(N-(3-(oct-1-ynyl)phenyl)sulfamoylamino)-4-(trimethylammonio) butanoate] | 10 to 100 µM
3 | CN(C(=O)N[C@H](CC(=O)[O-])C[N+](C)(C)C)c1ccc(Oc2ccccc2)cc1 [Example S34, (R)-3-(3-methyl-3-(4-phenoxyphenyl)ureido)-4-(trimethyl-ammonio)butanoate] | 100 to 1000 µM
4 | C[N+](C)(C)C[C@@H](CC(=O)O)NS(=O)(=O)c1ccc(C#Cc2ccccc2)s1 [Example S78, (R)-3-carboxy-N,N,N-trimethyl-2-(5-(phenylethynyl)thiophene-2-sulfonamido)propan-1-aminium 2,2,2-trifluoroacetate] | 100 to 1000 µM
5 | Cc1cccc(OCc2ccc(C(=O)N[C@H](CC(=O)[O-])C[N+](C)(C)C)o2)c1 [Example S70, (R)-3-(5-(m-tolyloxymethyl)furan-2-carboxamido)-4-(trimethylammonio)-butanoate] | 1 to 10 µM
6 | Cc1cccc(CCc2ccc(S(=O)(=O)N[C@H](CC(=O)O)C[N+](C)(C)C)s2)c1 [Example S77, (R)-3-carboxy-N,N,N-trimethyl-2-(5-(3-methylphenethyl)thiophene-2-sulfonamido)propan-1-aminium 2,2,2-trifluoroacetate] | 10 to 100 µM
7 | C[N+](C)(C)C[C@@H](CC(=O)O)NC(=O)Nc1ccc(F)c(F)c1F [Example S14, (R)-3-Carboxy-N,N,N-trimethyl-2-(3-(2,3,4-trifluorophenyl)ureido)-propan-1-aminium acetate] | 1000 to 2500 µM
8 | C[N+](C)(C)C[C@@H](CC(=O)[O-])NC(=O)c1ccc(Br)o1 [Example S114, (R)-3-(5-bromofuran-2-carboxamido)-4-(trimethylammonio)butanoate] | 100 to 1000 µM
9 | C[N+](C)(C)C[C@@H](CC(=O)O)NS(=O)(=O)c1ccc(CCc2ccccc2)s1 [Example S79, (R)-3-carboxy-N,N,N-trimethyl-2-(5-phenethylthiophene-2-sulfonamido)-propan-1-aminium 2,2,2-trifluoroacetate] | 10 to 100 µM
10 | CCCCCCCCc1cccc(N(C)S(=O)(=O)N[C@H](CC(=O)O)C[N+](C)(C)C)c1 [Example S113, (R)-3-carboxy-N,N,N-trimethyl-2-(N-methyl-N-(3-octylphenyl)sulfamoylamino)propan-1-aminium 2,2,2-trifluoroacetate] | 1 to 10 µM
11 | C[N+](C)(C)C[C@@H](CC(=O)O)NC(=O)Nc1ccc(C(=O)c2ccccc2)cc1 [Example S16, (R)-2-(3-(4-Benzoylphenyl)ureido)-3-carboxy-N,N,N-trimethylpropan-1-aminium acetate] | 10 to 100 µM
12 | CCCn1cc(C(=O)N[C@H](CC(=O)[O-])C[N+](C)(C)C)c(C)n1 [Example S54, (R)-3-(3-methyl-1-propyl-1H-pyrazole-4-carboxamido)-4-(trimethyl-ammonio)butanoate] | 1000 to 2500 µM

More lines, now with the values ahead:

Row | IC50 | Compound
13 | 1 to 10 µM | CCCCCCOc1cccc(C#Cc2ccc(C(=O)N[C@H](CC(=O)[O-])C[N+](C)(C)C)o2)c1 [Example S122, (R)-3-(5-((3-(hexyloxy)phenyl)ethynyl)furan-2-carboxamido)-4-(trimethylammonio)butanoate]
14 | 1000 to 2500 µM | Cc1nc(-c2ccccc2)sc1NC(=O)N[C@H](CC(=O)[O-])C[N+](C)(C)C [Example S9, (R)-3-(3-(4-methyl-2-phenylthiazol-5-yl)ureido)-4-(trimethylammonio)-butanoate]
15 | ≤ 1 µM | CCCCCCCCCc1ccc(NS(=O)(=O)N[C@H](CC(=O)[O-])C[N+](C)(C)C)cc1 [Example S105, (R)-3-(N-(4-nonylphenyl)sulfamoylamino)-4-(trimethylammonio)-butanoate]
16 | 100 to 1000 µM | C[N+](C)(C)C[C@@H](CC(=O)[O-])NC(=O)Nc1ccc(-c2cccs2)cc1 [Example S11, (R)-3-(3-(4-(thiophen-2-yl)phenyl)ureido)-4-(trimethylammonio)butanoate]
17 | ≤ 1 µM | CCCCCc1ccc(CCc2ccc(C(=O)N[C@H](CC(=O)O)C[N+](C)(C)C)o2)cc1 [Example S123, (R)-3-carboxy-N,N,N-trimethyl-2-(5-(4-pentylphenethyl)furan-2-carboxamido)propan-1-aminium 2,2,2-trifluoroacetate]
18 | ≤ 1 µM | CCCCCCCCc1cccc(NS(=O)(=O)N[C@H](CC(=O)[O-])C[N+](C)(C)C)c1 [Example S111, (R)-3-(N-(3-octylphenyl)sulfamoylamino)-4-(trimethylammonio)-butanoate]
19 | 100 to 1000 µM | CCCOc1ccc(C(=O)N[C@H](CC(=O)[O-])C[N+](C)(C)C)cc1 [Example S1, (R)-3-(4-propoxybenzamido)-4-(trimethylammonio)butanoate]
20 | ≤ 1 µM | CCCCCCCCc1ccc(NS(=O)(=O)N[C@H](CC(=O)[O-])C[N+](C)(C)C)cc1 [Example S30, (R)-3-(N-(4-octylphenyl)sulfamoylamino)-4-(trimethylammonio)butanoate]
21 | 1 to 10 µM | CCCCCc1ccc(CCc2ccc(S(=O)(=O)N[C@H](CC(=O)O)C[N+](C)(C)C)s2)cc1 [Example S83, (R)-3-carboxy-N,N,N-trimethyl-2-(5-(4-pentylphenethyl)thiophene-2-sulfonamido)propan-1-aminium 2,2,2-trifluoroacetate]
22 | 10 to 100 µM | C[N+](C)(C)C[C@@H](CC(=O)[O-])NC(=O)Nc1ccc(Oc2ccccc2)cc1 [Example S8, (R)-3-(3-(4-phenoxyphenyl)ureido)-4-(trimethylammonio)butanoate]
23 | 10 to 100 µM | CCCCCc1ccc(NC(=O)N[C@H](CC(=O)[O-])C[N+](C)(C)C)cc1 [Example S15, (R)-3-Carboxy-N,N,N-trimethyl-2-(3-(4-pentylphenyl)ureido)propan-1-aminium]
24 | 10 to 100 µM | C[N+](C)(C)C[C@@H](CC(=O)[O-])NC(=O)c1ccc(CCc2ccccc2)cc1 [Example S64, (R)-3-(4-phenethylbenzamido)-4-(trimethylammonio)butanoate]
25 | ≤ 1 µM | CCCCCCCCOc1ccc(NS(=O)(=O)N[C@H](CC(=O)[O-])C[N+](C)(C)C)cc1 [Example S103, (R)-3-(N-(4-(octyloxy)phenyl)sulfamoylamino)-4-(trimethylammonio) butanoate]

From patent US8410150B2, “Inhibitors of carnitine palmitoyltransferase and treating cancer” (University Health Network, priority 2007, dated 2013)
